Source: patent US12325697B2 (Nimbus Clio, Inc., priority 2021, dated 2025)

Target: Recombinant human Cbl-b (aa 36-427) (Homo sapiens (Human), UniProt Q13191)
Assay: Cbl-b Biochemical Assay (TR-FRET)
Settings: read-out: TR-FRET hCbl-b IC50
Procedure: Recombinant human Cbl-b (aa 36-427) was expressed in E. coli, purified and biotinylated in vitro. The protein was diluted to 12 nM in freshly prepared assay buffer consisting of 50 mM HEPES, pH 7.0, 100 mM NaCl, 5 mM MgCl2, 0.01% Triton-X 100, 0.01% BSA and 1 mM DTT. Recombinant human Src (aa 254-536)-[…]-Zap-70 (aa 281-297) fusion protein was expressed in E. coli and purified. Protein was diluted in assay buffer to 2-5 nM and supplemented with ATP to 1 mM. Fluorescein-BODIPY labeled UBE[…]([…])-Ub was prepared by conjugating ubiquitin (Ub) labeled at its N-terminus with Fluorescein-BODIPY maleimide (ThermoFisher Catalog no B10250) to E. coli expressed and purified UBE[…]([…]) [see Dou et al Nature Structural and Molecular Biology 8: 982-987, 2013]. Recombinant human UBE2D2([…]) was expressed in E. coli, purified and ubiquitinated and Bodipy labelled in vitro. Protein was diluted to 200 nM in assay buffer without MgCl2 (or Cisbio PPI buffer). Streptavidin-Terbium was added to 2 nM and EDTA to 10 mM, to provide a binding assay mix. Compounds were dissolved in DMSO and diluted to prepare a ten-point dilution series. 100 nl of each compound concentration was dispensed in duplicate in a 384 well black assay plate using acoustic dispensing. Wells for maximum signal controls received 100 nl of DMSO only and wells for minimum signal controls received 100 nl of a reference inhibitor compound at a final assay concentration of […] to produce 100% inhibition. 5 μl of diluted Cbl-b enzyme was added to all wells of the assay plate and incubated at RT for 30-60 min. The enzyme assay was initiated by addition of 5 μl of Src-Zap/ATP mix to all wells, and the plate incubated at RT for 60 min. The enzyme reaction was terminated and the binding reaction was initiated by adding 10 μl of binding assay mix to all wells and incubating the plate at RT for 60 min prior to assay read. Final assay conditions consisted of 6 nM Cbl-b, 1-2.5 nM Src-Zap70, 0.5 mM ATP, 1% (v/v) DMSO (enzyme reaction) and 100 nM UBE2D2([…])-Ub-FL-BODIPY, 5 mM EDTA, 1 nM Streptavidin-Tb (binding reaction). The HTRF assay signal was measured at 520 nm on an Envision plate reader, with reference signal at 485 or 620 nm. Data was normalized using maximum and minimum assay controls: % Inhibition=100-(100*((maximum control)-unknown)/(maximum control-minimum control)). A 4-parameter dose-response equation was used to fit the normalized dose-response data and derive an IC50 for test compounds.

Recombinant human Cbl-b (aa 36-427), sequence (Q13191 36-427): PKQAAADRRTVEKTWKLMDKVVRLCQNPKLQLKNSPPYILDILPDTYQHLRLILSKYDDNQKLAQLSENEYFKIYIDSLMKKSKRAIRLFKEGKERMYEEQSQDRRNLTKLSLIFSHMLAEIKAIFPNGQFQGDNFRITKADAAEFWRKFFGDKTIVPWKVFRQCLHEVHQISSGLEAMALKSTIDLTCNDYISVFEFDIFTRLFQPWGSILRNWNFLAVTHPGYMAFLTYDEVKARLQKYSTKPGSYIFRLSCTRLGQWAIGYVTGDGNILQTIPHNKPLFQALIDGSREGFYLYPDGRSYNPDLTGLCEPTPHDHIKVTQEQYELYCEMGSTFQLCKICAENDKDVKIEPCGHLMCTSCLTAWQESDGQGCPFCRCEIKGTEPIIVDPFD

Row | SMILES | IC50
1 | CCNc1cc(-c2ccccc2-c2nncn2C)cc(N2Cc3c(cc(CN4CCC5(CC5)C4)cc3C(F)(F)F)C2=O)n1 [ABR-1, 6-((5-Azaspiro [2.4]heptan-5-yl)methyl)-2-(6-(ethylamino)-4-(2-(4-methyl-4H-1,2,4-triazol-3-yl)phenyl)pyridin-2-yl)-4-(trifluoromethyl)isoindolin-1-one] | ≤ 200 nM
2 | Cc1nc[nH]c1-c1ccccc1-c1cccc(N2Cc3c(cccc3C(F)(F)F)C2=O)c1 [AAV-6, 2-(2′-(4-Methyl-1H-imidazol-5-yl)-[1,1′-biphenyl]-3-yl)-4-(trifluoromethyl)isoindolin-1-one] | 1000 to 10000 nM
3 | Cn1cnnc1-c1ccc(C(F)(F)F)cc1-c1cccc(N2Cc3c(cccc3C(F)(F)F)C2=O)c1 [AAG-8, 2-(2′-(4-Methyl-4H-1,2,4-triazol-3-yl)-5′-(trifluoromethyl)-[1,1′-biphenyl]-3-yl)-4-(trifluoromethyl)isoindolin-1-one] | 10000 to 50000 nM
4 | CCNc1cc(-c2c(-c3nncn3C)cnn2C)cc(NC(=O)c2cc(OCCN3CCCC3)nc(C3CC3)n2)n1 [ABU-2, 2-Cyclopropyl-N-(6-(ethylamino)-4-(1-methyl-4-(4-methyl-4H-1,2,4-triazol-3-yl)-1H-pyrazol-5-yl)pyridin-2-yl)-6-(2-(pyrrolidin-1-yl)ethoxy)pyrimidine-4-carboxamide] | 200 to 1000 nM
5 | CCNc1cc(-c2c(-c3nncn3C)cnn2C)cc(N2Cc3c(cc(CN4CCC(F)C4)cc3C(F)(F)F)C2=O)n1 (stereo not shown) [ABP-3, 2-(6-(Ethylamino)-4-(1-methyl-4-(4-methyl-4H-1,2,4-triazol-3-yl)-1H-pyrazol-5-yl)pyridin-2-yl)-6-((3-fluoropyrrolidin-1-yl)methyl)-4-(trifluoromethyl)isoindolin-1-one] | ≤ 200 nM
6 | CCOc1cc(-c2c(-c3nncn3C)cnn2C)cc(N2Cc3c(cccc3C(F)(F)F)C2=O)c1 [AAI-7, 2-(3-Ethoxy-5-(1-methyl-4-(4-methyl-4H-1,2,4-triazol-3-yl)-1H-pyrazol-5-yl)phenyl)-4-(trifluoromethyl) isoindolin-1-one] | 200 to 1000 nM
7 | CCn1ccc2c(-c3ccccc3-c3nncn3C)cc(N3Cc4c(cccc4C(F)(F)F)C3=O)nc21 [Example M-2, 2-(1-Ethyl-4-(2-(4-methyl-4H-1,2,4-triazol-3-yl)phenyl)-1H-pyrrolo[2,3-b]pyridin-6-yl)-4-(trifluoromethyl)isoindolin-1-one] | 1000 to 10000 nM
8 | CCNc1cc(-c2ccc(F)cc2-c2nncn2C)cc(N2Cc3c(cccc3C(F)(F)F)C2=O)n1 [ACM-8, 2-(6-(Ethylamino)-4-(4-fluoro-2-(4-methyl-4H-1,2,4-triazol-3-yl)phenyl)pyridin-2-yl)-4-(trifluoromethyl)isoindolin-1-one] | ≤ 200 nM
9 | C[C@H]1CN(Cc2cc3c(c(C(F)(F)F)c2)CN(c2cccc(-c4ccccc4-c4nncn4C)c2)C3=O)CCO1 [AB-2, (S)-2-(2′-(4-Methyl-4H-1,2,4-triazol-3-yl)-[1,1′-biphenyl]-3-yl)-6-((2-methylmorpholino)methyl)-4-(trifluoromethyl)isoindolin-1-one] | ≤ 200 nM
10 | Cn1cnnc1-c1ccccc1-c1cc(N2Cc3c(cccc3C(F)(F)F)C2=O)nc(C2(CO)CC2)c1 [ACU-2, 2-(6-(1-(Hydroxymethyl)cyclopropyl)-4-(2-(4-methyl-4H-1,2,4-triazol-3-yl)phenyl)pyridin-2-yl)-4-(trifluoromethyl)isoindolin-1-one] | ≤ 200 nM
11 | Cn1cnnc1-c1cnccc1-c1cccc(N2Cc3c(cccc3C(F)(F)F)C2=O)c1 [AAY-6, 2-[3-[3-(4-Methyl-1,2,4-triazol-3-yl)-pyridin-4-yl]-phenyl]-4-(trifluoromethyl)-3H-isoindol-1-one] | 1000 to 10000 nM
12 | Cn1cnnc1-c1ccccc1-c1cc(C(=O)O)cc(N2Cc3c(cccc3C(F)(F)F)C2=O)c1 [Example I-1, 2′-(4-Methyl-4H-1,2,4-triazol-3-yl)-5-(1-oxo-4-(trifluoromethyl)isoindolin-2-yl)-[1,1′-biphenyl]-3-carboxylic acid] | 10000 to 50000 nM
13 | Cn1cnnc1-c1ccccc1-c1cccc(NC(=O)c2cc(=O)n(CCN3CCCC3)c(C3CC3)n2)c1 [ABM-1, 2-Cyclopropyl-N-(2′-(4-methyl-4H-1,2,4-triazol-3-yl)-[1,1′-biphenyl]-3-yl)-6-oxo-1-(2-(pyrrolidin-1-yl)ethyl)-1,6-dihydropyrimidine-4-carboxamide] | 1000 to 10000 nM
14 | Cn1cnnc1-c1ccccc1-c1cc(NCCO)nc(N2Cc3c(cccc3C(F)(F)F)C2=O)c1 [ABT-2, 2-(6-((2-Hydroxyethyl)amino)-4-(2-(4-methyl-4H-1,2,4-triazol-3-yl)phenyl)pyridin-2-yl)-4-(trifluoromethyl)isoindolin-1-one] | 200 to 1000 nM
15 | CCNc1cc(-c2ccccc2-c2nncn2C)cc(N2Cc3c(cccc3C(F)(F)F)C2=O)n1 [AAU-1, 2-(6-(Ethylamino)-4-(2-(4-methyl-4H-1,2,4-triazol-3-yl)phenyl)pyridin-2-yl)-4-(trifluoromethyl)isoindolin-1-one] | ≤ 200 nM
16 | Cn1cnnc1-c1cnn(C)c1-c1cccc(NC(=O)c2cc(=O)n(C)c(C3CC3)n2)c1 [AAE-6, 2-Cyclopropyl-1-methyl-N-[3-[2-methyl-4-(4-methyl-1,2,4-triazol-3-yl)pyrazol-3-yl]phenyl]-6-oxopyrimidine-4-carboxamide] | 10000 to 50000 nM
17 | COC(=O)C1(c2cc(-c3ccccc3-c3nncn3C)cc(N3Cc4c(cccc4C(F)(F)F)C3=O)n2)CC1 [ACJ-6, Methyl 1-(4-(2-(4-methyl-4H-1,2,4-triazol-3-yl)phenyl)-6-(1-oxo-4-(trifluoromethyl)isoindolin-2-yl)pyridin-2-yl) cyclopropane-1-carboxylate] | 10000 to 50000 nM
18 | CCNc1cc(-c2ccccc2-c2nncn2C)cc(N2Cc3c(cc(CN4CCO[C@@H](C)C4)cc3C(F)(F)F)C2=O)n1 [AL-1, (S)-2-(6-(Ethylamino)-4-(2-(4-methyl-4H-1,2,4-triazol-3-yl)phenyl)pyridin-2-yl)-6-((2-methylmorpholino)methyl)-4-(trifluoromethyl)isoindolin-1-one] | ≤ 200 nM
19 | Cn1cnnc1-c1cnn(C)c1-c1cc(Cl)nc(N2Cc3c(cc(CN4CCC5(CC5)C4)cc3C(F)(F)F)C2=O)c1 [ABD-1, 6-((5-Azaspiro [2.4]heptan-5-yl)methyl)-2-(6-chloro-4-(1-methyl-4-(4-methyl-4H-1,2,4-triazol-3-yl)-1H-pyrazol-5-yl)pyridin-2-yl)-4-(trifluoromethyl)isoindolin-1-one] | 200 to 1000 nM
20 | CCNc1cc(-c2ccccc2-c2nncn2C)cc(N2Cc3c(cc(CN[C@@H]4CCC[C@H]4O)cc3C(F)(F)F)C2=O)n1 [AO-1, 2-(6-(Ethylamino)-4-(2-(4-methyl-4H-1,2,4-triazol-3-yl)phenyl)pyridin-2-yl)-6-((((1R,2R)-2-hydroxycyclopentyl)amino)methyl)-4-(trifluoromethyl)isoindolin-1-one] | ≤ 200 nM
21 | CCNc1cc(-c2c(-c3nncn3C)cnn2C)cc(NC(=O)c2cc(CO)cc(C3CC3)n2)n1 [ABZ-7, 6-Cyclopropyl-N-(6-(ethylamino)-4-(1-methyl-4-(4-methyl-4H-1,2,4-triazol-3-yl)-1H-pyrazol-5-yl)pyridin-2-yl)-4-(hydroxymethyl) picolinamide] | ≤ 200 nM
22 | Cn1cnnc1-c1cnn(C)c1-c1cc(O)nc(N2Cc3c(cccc3C(F)(F)F)C2=O)c1 [AAO-1, 2-(6-Hydroxy-4-(1-methyl-4-(4-methyl-4H-1,2,4-triazol-3-yl)-1H-pyrazol-5-yl)pyridin-2-yl)-4-(trifluoromethyl)isoindolin-1-one] | 10000 to 50000 nM
23 | Cn1cnnc1-c1cc(C#N)ccc1-c1cccc(N2Cc3c(cccc3C(F)(F)F)C2=O)c1 [ACC-8, 2-(4-Methyl-4H-1,2,4-triazol-3-yl)-3′-(1-oxo-4-(trifluoromethyl)isoindolin-2-yl)-[1,1′-biphenyl]-4-carbonitrile] | ≤ 200 nM
24 | CCNc1cc(-c2ccccc2-c2nncn2C)cc(N2Cc3c(cc(CN4CC[C@H](F)C4)cc3C(F)(F)F)C2=O)n1 [AJ-1, (S)-2-(6-(Ethylamino)-4-(2-(4-methyl-4H-1,2,4-triazol-3-yl)phenyl)pyridin-2-yl)-6-((3-fluoropyrrolidin-1-yl)methyl)-4-(trifluoromethyl)isoindolin-1-one] | ≤ 200 nM
25 | Cn1cnnc1-c1ccccc1-c1cc(N2Cc3c(cccc3C(F)(F)F)C2=O)cc(C(F)(F)F)c1 [Example K-3, 2-(2′-(4-Methyl-4H-1,2,4-triazol-3-yl)-5-(trifluoromethyl)-[1,1′-biphenyl]-3-yl)-4-(trifluoromethyl)isoindolin-1-one] | 1000 to 10000 nM
